# Patent publication US20260091015A1, “TREATING IRON DEFICIENCY WITH FERRIC CARBOXYMALTOSE” (PHARMACOSMOS HOLDING A/S, priority 2018, published 2026)
# Where two headings read alike, the source gives them in different places.
# How the values were obtained:
# [1] = Incidence of hypophosphatemia / s-phosphate in randomized open-label trials IDA-04 and IDA-05; type: in vivo, human
# Method: Two prospective randomized, open-label, comparative trials were performed comparing the incidence of hypophosphatemia in relation to treatment with iron isomaltoside (“IIM”, tradename Monofer®, Monoferric®) and ferric carboxymaltose (“FCM”, trade name Injectafer, Ferinject) in adult human subjects with iron deficiency anaemia.
# The trial was a randomized, open-label, comparative trial. Subjects with Iron Deficiency Anaemia (IDA) were randomized 1:1 to one treatment course of one of the following treatments: • Group A: iron isomaltoside 1000 (Monofer®, Pharmacosmos, Holbok, Denmark, termed iron isomaltoside in the following), 1000 mg at baseline • Group B: ferric carboxymaltose (Ferinject®/Injectafer®, Vifor Inc, Switzerland), 750 mg at baseline and day 7, cumulative dose: 1500 mg
# The primary endpoint was the incidence of hypophosphatemia (defined as s-phosphate <2 mg/dL) at any time from baseline to day 35. […]
# (§1) The following safety laboratory assessments were analysed: • S-phosphate: inorganic phosphorous forms an ammonium phosphomolybdate complex having the formula (NH4)3[PO4](MoO3)12 with ammonium molybdate in the presence of sulfuric acid. The complex was determined photometrically in the ultraviolet region (340 nm) of the spectrum using the Roche Modular and Cobas Analyzer. • iFGF23 and cFGF23: the human intact FGF23 was measured by the 2nd generation Elisa kit manufactured by Immonotropics, Inc, San Clemente, CA. […] The human C-terminal FGF23 was measured by the Elisa kit manufactured by Immonotropics, Inc, San Clemente, CA. […] After evaporation under nitrogen, the residue was reconstituted and analyzed using Liquid Chromatography (LC) with Tandem Mass Spectrometric detection (MS/MS). […]
# [2] = test system: vitamin D (25, 1,25, 24,25); experiment: Vitamin D (25, 1,25, 24,25) levels by LC-MS/MS, trials IDA-04/IDA-05; type: in vivo, human; conditions: IDA-04 and IDA-05 combined
# Method: The term “serum vitamin D” as used herein refers to the level of vitamin Ds, in particular 25-hydroxyvitamin D, 1,25-dihydroxyvitamin D, and 24,25-dihydroxyvitamin D, in blood serum as measured by Liquid Chromatography and Tandem Mass Spectrometry (LC-MS/MS).
# The trial was a randomized, open-label, comparative trial. […]
# as §1
# [3] = cited from earlier work
# [4] = FCM 750 mg at baseline and day 7 vs JIM 1000 mg at baseline, subjects with IDA, baseline to day 35
# [5] = compared to iron dextran, iron sucrose and iron isomaltoside 1000
substance,measurement,setting,value
ferric carboxymaltose [FCM],"rate of hypophosphatemia, moderate to severe form with serum phosphate below 2 mg/dL",[1]; [4],significantly higher
same,"rate of hypophosphatemia, severe form of serum phosphate at or below 1.0 mg/dL",[1]; [4],significantly higher
same,serum phosphate,[1]; after FCM treatment,decrease
same,"1,25-dihydroxyvitamin D",[2],decrease
same,"24,25-dihydroxyvitamin D",[2],increase
same,risk for iFGF23-mediated reduction of serum phosphate levels and development of hypophosphatemia,"[3]; clinical trials and case reports, Wolf et al., 2013",highest risk
same,time to minimum serum phosphorous values,"[3]; clinical trials, EU SmPC",approximately 2 weeks
same,prevalence of hypophosphatemia,[3]; [5],higher prevalence
same,reduction in serum phosphate,[3]; [5],larger and longer reduction
same,time until serum phosphorous returned to within the range of baseline,"[3]; following treatment, clinical trials, EU SmPC",4 to 12 weeks
same,serum phosphate,"[3]; women with IDA secondary to heavy uterine bleeding, Wolf et al., 2013",reduced
